According to patent US9283235B2, “Intermittent lowering of cortisol as treatment of clinical conditions associated with abnormal concentrations of cortisol in animals” (Stegram Pharmaceuticals Limited, priority 2001, dated 2016):

How the values were obtained:
Format in all cases: in vivo, dog
[1] = test system: dogs with hyperadrenocorticism (HAC); experiment: Prospective study of trilostane in dogs with spontaneous hyperadrenocorticism (HAC): clinical signs and survival
Method: Animals were entered into a prospective study and all animals required clinical and laboratory signs of hyperadrenocorticism as well as a final diagnosis of this disease. Data collected from each case included a clinical-historicy and physical examination, full blood count (CBC), serum biochemical profile, urinalysis and abdominal ultrasound. An ACTH-stimulation test was performed in all dogs. […] Dogs that had been treated for HAC other medication needed to be off these drugs for at least 10 days. Dogs with renal or hepatic insufficiency and dogs that received steroids were not included in the study.
Dogs with pituitary dependant hyperadrenocorticism or adrenal tumour which was unresectable or the owners were unwilling to have surgery performed, respectively, were treated with trilostane. The initial dose for dogs[…] was 30 mg once daily, dogs between 5 and 15 kg received 60 mg once daily and dogs>15 kg received 120 mg once daily. Dosages were adjusted based on clinical signs, blood biochemical parameters and an ACTH stimulation test.
Follow-up re-examinations took place after 10 days, 4 weeks, 3 mouths, 6 months and then every 6 months or within 4 weeks of adjusting the dosage. At these points, owners were carefully questioned about their perception of the dogs general well being, dissolution of clinical signs and potential side effects and a physical examination was performed. A full biochemical profile and an ACTH stimulation test were carried out. Further tests such as urinanalysis, urine culture, thoracic radiographs, etc. were done if deemed necessary. If the clinical sips of hyperadrenocorticism (polyuria/polydipsia, polyphagia, exercise intolerance, etc.) were still present and if the post-ACTH cortisol concentration remained above 220 nmol/l, trilostane was given twice daily at the same dosage.

dogs with Alopecia X = experiment: Treatment of Alopecia X in dogs, hair re-growth; conditions: once-daily dose
Text: To study the effect of trilostane in the treatment of Alopecia X a total of 11 dogs with the condition were examined along with 10 unaffected dogs. The hormonal abnormalities were identified, with increases in cortisol and 17 OHP concentrations. Trilostane in a once-daily dose was given to the affected animals. Five of the six Pomeranians (83%) and all four of the Miniature poodles have responded to trilostane, showing hair re-growth in the affected areas.

[2] = Trilostane and ketotrilostane concentrations in dogs after a single daily dose
Method: Trilostane concentrations in the plasma of 6 dogs: day 0, phase 1 (one 60 mg capsule per day), study no. GB009/01-001.
Ketotrilostane concentrations in the plasma of 6 dogs: day 0, phase 1 (one 60 mg capsule per day), study no. GB009/01-001.
The significance of this is that the metabolite, ketotrilostane, is not retained in the body for an extended period of time.

## CC12CCC3C(CC[C@@]45O[C@@H]4C(=O)C(C#N)CC35C)C1CC[C@@H]2O (stereo partly drawn) [Trilostane, 2α-cyano-4α,5α-epoxyandrostan-17β-ol-3-one]
[1]; 22 dogs, SD 195.1, range 27-730 days
  Mean time to euthanasia or death, dogs with PDH: 230.9 days
[1]; 32 dogs, SD 285.2, range 105 to 1120 days
  Mean time since commencing treatment, dogs with PDH alive: 417.3 days
[1]; all dogs with skin abnormalities, 2-3 months after starting
  Skin abnormalities: marked improvement with normal hair growth
[1]; dog, in vivo
  Dogs in which polyuria/polydipsia and polyphagia dissipated within the first 10 days of treatment: 29 dogs
  Dogs in which polyuria/polydipsia and polyphagia dissipated within the first month of treatment: 14 dogs
  Dogs with clinical signs improved but always some clinical signs of HAC: 6 dogs
[1]; of 54 dogs with PDH
  Dogs with PDH alive: 32 dogs
[1]; six dogs, SD 174.9 days
  Median survival, dogs with adrenal tumour that died or were euthanised: 260 days
Dogs with Alopecia X
  Miniature poodles responding, hair re-growth in the affected areas: all four
Dogs with Alopecia X; five of six
  Pomeranians responding, hair re-growth in the affected areas: 83%
[2]; after single daily dose
  Elimination of trilostane: rapid elimination
[2]; after single daily dose (FIG. 1, one 60 mg capsule per day, 6 dogs)
  Time of peak serum concentration of trilostane: 1 to 3 h
